The target of one assay is NIT1 C165 (Q86X76) (Homo sapiens, UniProt Q86X76). Kind of assay: Competitive isoTOP-ABPP in situ. In kind it is cell-based. Conditions: fragment 4 at 100 μM, MDA-MB-231 cells.
In a further assay the target is CLTC C870 (Q00610) (Homo sapiens, UniProt Q00610). Kind of assay: Competitive isoTOP-ABPP in situ. As to conditions: fragment 4 at 100 μM, MDA-MB-231 cells. Format: cell-based.
Another assay has as its target PGPEPI C149 (Q9NXJ5) (Homo sapiens, UniProt Q9NXJ5). Kind of assay: Competitive isoTOP-ABPP in situ. As to conditions: fragment 4 at 100 μM, MDA-MB-231 cells. Format: cell-based.
For the next assay, the target named is CDKN3 C39 (Q16667) (Homo sapiens, UniProt Q16667). Kind of assay: Competitive isoTOP-ABPP in situ. Format: cell-based. Conditions: fragment 4 at 100 μM, MDA-MB-231 cells.
The target of assay [1] is cysteines in MDA-MB-231 and Ramos cells (Homo sapiens, UniProt Q13867). Briefly: Competitive isoTOP-ABPP in situ (fragment-treated cells). Format: cell-based. As to conditions: 200 μM, insitu, 231.
Assay [2] deals with cysteines in MDA-MB-231 and Ramos cells (Homo sapiens, UniProt Q8IV53). Described as above. In kind it is cell-based. Conditions: 200 μM, insitu, ramos.
Assay [3] addresses cysteines in MDA-MB-231 and Ramos cells (Homo sapiens, UniProt Q5T1V6). Described as above. Format: cell-based. As to conditions: 200 μM, insitu, 231.
Assay [4] has as its target cysteines in MDA-MB-231 and Ramos cells (Homo sapiens, UniProt Q96IV0). The assay is described as above. In kind it is cell-based. Conditions: cysteine Q96IV0_C309; fragment 200 μM, in situ, ramos cells.
The target of assay [5] is cysteines in MDA-MB-231 and Ramos cells (Homo sapiens, UniProt Q8WUM4). The assay is described as above. Format: cell-based. Conditions: cysteine Q8WUM4_C90; fragment 200 μM, in situ, 231 (MDA-MB-231) cells.
For the next assay, the target named is T1, IDH1 (Homo sapiens, UniProt O75874).
T1 construct: Full length cDNAs encoding for IDH1 (Open Biosystems, Clone ID: 3880331) and IMPDH2; His6 (C); made in house; host or cells: E. coli BL21(DE3)
Briefly: IDH1 NADP assay. Format: biochemical. Here is the method: To 25 μL of this mixture was added 1 μL of the indicated compound (25× stock solution in DMSO) and the lysates were incubated for 1 h at room temperature in clear 96 well plates (Corning® Costar®). […] Absorbance was measured for 45 minutes and the relative activities were calculated from the change in absorbance for the linear portion of the curve.

Another assay has as its target MKI67 C903 (P46013) (Homo sapiens, UniProt P46013). Kind of assay: Competitive isoTOP-ABPP in situ. Format: cell-based. Conditions: fragment 2 at 200 μM, MDA-MB-231 cells.
A further assay deals with WAPAL C160 (Q7Z5K2) (Homo sapiens, UniProt Q7Z5K2). Kind of assay: Competitive isoTOP-ABPP in situ. In kind it is cell-based. Conditions: fragment 2 at 200 μM, MDA-MB-231 cells.
Assay [6] deals with cysteines in MDA-MB-231 and Ramos cells (Homo sapiens, UniProt Q9P0K7). Kind of assay: Competitive isoTOP-ABPP in situ (fragment-treated cells). Format: cell-based. Conditions: 100 μM in situ 231.
Assay [7] deals with cysteines in MDA-MB-231 and Ramos cells (Homo sapiens, UniProt P53992). The assay is described as above. Conditions: 200 μM, insitu, 231. In kind it is cell-based.
The target of assay [8] is cysteines in MDA-MB-231 and Ramos cells (Homo sapiens, UniProt Q9UHQ1). Described as above. In kind it is cell-based. Conditions: 200 μM, insitu, ramos.
The next assay deals with T2, MLTK (ZAK) C22 (Homo sapiens, UniProt Q9NYL2).
T2 construct: expressed in transfected cells
Briefly: Blockade of ibrutinib-derived probe 59 labeling of MLTK (gel-based ABPP). In kind it is binding. As for the experimental part: CuAAC was performed with 20 μM rhodamine-azide (50× stock in DMSO), 1 mM tris(2-carboxyethyl)phosphine hydrochloride (TCEP; fresh 50× stock in water, final concentration=1 mM), ligand (17× stock in DMSO:t-butanol 1:4, final concentration=100 μM) and 1 mM CuSO4 (50× stock in water, final concentration=1 mM). […] Quenched reactions were analyzed by SDS-PAGE and visualized by in-gel fluorescence. […] For MLTK, HEK 293T cells stably overexpressing MTLK^2 were treated with the indicated fragment electrophiles for 1 h, followed by labeling with 59 (1 μl, of 125 μM, final concentration=5 μM) for 1 h. These were followed by CuAAC conjugation to rhodamine-azide and evaluation by SDS-PAGE as described above.

The target of another assay is T3, TIGAR (Homo sapiens, UniProt Q9NQ88).
T3 construct: His6 (N); made in house; host or cells: E. coli BL21(DE3)
Briefly: TIGAR activity assay. Format: biochemical. Conditions: WT-TIGAR, concentration series. As for the experimental part: TIGAR activity assay was conducted as described in Gerin et al. The Biochemical Journal 458:439-448 (2014). Formation of 3PG (3-phosphoglycerate) production from 23BPG (2,3-bisphosphoglycerate) was measured spectrophotometrically on a TECAN plate reader, measuring decrease in absorbance at 340 nm in clear, flat-bottom 96 well microplate (Corning® Costar®). 2 μL of recombinant TIGAR (10 mg/mL) was diluted into 1 mL dilution buffer (25 mM HEPES, pH 7.1, 25 mM KCl, 1 mM MgCl2). 25 μL of diluted protein was incubated for 1 h with the indicated concentration of compound (1 μL, 25× stock in DMSO). Then 75 μL of assay mixture comprised of 25 mM HEPES (pH 7.1), 25 mM KCl, 1 mM MgCl2, 0.5 mM NADH, 1 mM DTT, 1 mM 23BPG, 1 mM ATP-Mg, the equivalent of 1 μL each of rabbit muscle GAPDH (4000 units/mL, Sigma, G5537) and yeast PG kinase (6300 units/mL, Sigma, P7634) was added to the protein and decrease in absorbance was monitored at 340 nm. The background, calculated from samples lacking TIGAR, was subtracted from samples containing TIGAR. Experiments were performed in quadruplicate.

Assay [9] concerns the target cysteines in MDA-MB-231 and Ramos cells (Homo sapiens, UniProt Q86UV5). Kind of assay: Competitive isoTOP-ABPP in situ (fragment-treated cells). As to conditions: 200 μM, insitu, ramos. In kind it is cell-based.

Chain of cysteines in MDA-MB-231 and Ramos cells (Homo sapiens, UniProt Q96IV0) (Q96IV0 whole entry, the tested form may be a part): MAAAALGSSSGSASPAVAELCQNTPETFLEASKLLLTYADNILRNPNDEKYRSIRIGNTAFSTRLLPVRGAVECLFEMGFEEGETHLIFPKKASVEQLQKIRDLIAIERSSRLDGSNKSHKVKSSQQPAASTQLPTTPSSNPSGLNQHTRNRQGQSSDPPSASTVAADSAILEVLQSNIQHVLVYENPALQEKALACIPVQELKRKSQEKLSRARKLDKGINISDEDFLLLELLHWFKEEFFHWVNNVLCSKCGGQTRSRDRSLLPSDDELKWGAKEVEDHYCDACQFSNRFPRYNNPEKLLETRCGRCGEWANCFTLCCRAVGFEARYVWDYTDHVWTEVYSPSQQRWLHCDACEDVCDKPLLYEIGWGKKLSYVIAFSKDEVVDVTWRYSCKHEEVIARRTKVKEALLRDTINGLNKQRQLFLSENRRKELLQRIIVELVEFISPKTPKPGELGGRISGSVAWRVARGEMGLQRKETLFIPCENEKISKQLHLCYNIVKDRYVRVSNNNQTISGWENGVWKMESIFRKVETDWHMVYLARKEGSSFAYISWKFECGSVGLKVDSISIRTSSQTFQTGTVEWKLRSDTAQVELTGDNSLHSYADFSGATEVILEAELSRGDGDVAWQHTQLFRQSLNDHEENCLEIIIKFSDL
Chain of cysteines in MDA-MB-231 and Ramos cells (Homo sapiens, UniProt Q9UHQ1) (Q9UHQ1 whole entry): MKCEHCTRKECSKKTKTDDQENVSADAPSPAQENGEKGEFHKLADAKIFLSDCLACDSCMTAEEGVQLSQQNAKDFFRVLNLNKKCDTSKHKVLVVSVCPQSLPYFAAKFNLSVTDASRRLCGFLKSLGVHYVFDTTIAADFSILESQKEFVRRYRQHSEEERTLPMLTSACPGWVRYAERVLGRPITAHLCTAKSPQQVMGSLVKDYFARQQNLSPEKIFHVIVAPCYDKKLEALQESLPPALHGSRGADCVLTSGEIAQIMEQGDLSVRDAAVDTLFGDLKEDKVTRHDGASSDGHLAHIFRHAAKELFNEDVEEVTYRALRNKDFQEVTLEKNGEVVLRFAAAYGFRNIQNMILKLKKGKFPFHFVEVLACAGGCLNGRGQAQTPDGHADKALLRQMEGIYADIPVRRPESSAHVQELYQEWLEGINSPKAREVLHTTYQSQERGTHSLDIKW
Chain of cysteines in MDA-MB-231 and Ramos cells (Homo sapiens, UniProt P53992) (P53992 whole entry): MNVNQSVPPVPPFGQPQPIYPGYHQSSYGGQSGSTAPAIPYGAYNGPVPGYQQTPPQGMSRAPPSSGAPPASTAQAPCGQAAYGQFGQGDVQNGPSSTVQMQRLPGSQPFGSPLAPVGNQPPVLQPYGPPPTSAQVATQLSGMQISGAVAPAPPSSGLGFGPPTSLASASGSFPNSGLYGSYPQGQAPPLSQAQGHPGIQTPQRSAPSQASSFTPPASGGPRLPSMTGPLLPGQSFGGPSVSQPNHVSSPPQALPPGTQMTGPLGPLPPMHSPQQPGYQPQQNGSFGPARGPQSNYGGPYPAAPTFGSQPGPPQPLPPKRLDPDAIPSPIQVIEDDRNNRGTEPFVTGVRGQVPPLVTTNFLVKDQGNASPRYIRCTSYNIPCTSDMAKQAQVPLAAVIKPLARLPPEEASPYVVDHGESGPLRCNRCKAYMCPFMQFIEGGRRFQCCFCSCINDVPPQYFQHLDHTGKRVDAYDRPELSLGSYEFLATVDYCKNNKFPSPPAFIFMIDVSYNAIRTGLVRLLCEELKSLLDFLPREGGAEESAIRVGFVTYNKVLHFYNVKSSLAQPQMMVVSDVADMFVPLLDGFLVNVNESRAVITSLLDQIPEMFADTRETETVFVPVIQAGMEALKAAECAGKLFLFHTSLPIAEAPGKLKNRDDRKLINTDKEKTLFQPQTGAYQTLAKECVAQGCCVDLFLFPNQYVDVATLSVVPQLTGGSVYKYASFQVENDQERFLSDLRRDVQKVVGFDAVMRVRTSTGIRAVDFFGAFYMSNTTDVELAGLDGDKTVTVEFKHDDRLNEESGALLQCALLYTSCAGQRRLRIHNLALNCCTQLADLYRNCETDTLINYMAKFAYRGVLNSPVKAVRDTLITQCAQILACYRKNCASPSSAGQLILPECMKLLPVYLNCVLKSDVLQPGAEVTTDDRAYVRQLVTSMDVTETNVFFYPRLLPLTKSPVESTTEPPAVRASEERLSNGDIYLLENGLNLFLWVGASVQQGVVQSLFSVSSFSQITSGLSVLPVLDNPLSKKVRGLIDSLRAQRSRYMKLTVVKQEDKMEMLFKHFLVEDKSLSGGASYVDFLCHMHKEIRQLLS
T3 sequence (Q9NQ88 whole entry): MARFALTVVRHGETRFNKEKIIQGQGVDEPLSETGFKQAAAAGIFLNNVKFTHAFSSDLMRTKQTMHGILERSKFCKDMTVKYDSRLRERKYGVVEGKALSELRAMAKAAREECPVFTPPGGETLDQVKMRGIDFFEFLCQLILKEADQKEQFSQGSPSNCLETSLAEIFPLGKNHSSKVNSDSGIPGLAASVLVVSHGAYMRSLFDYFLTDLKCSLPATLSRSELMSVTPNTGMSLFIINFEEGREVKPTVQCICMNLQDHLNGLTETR
Chain of cysteines in MDA-MB-231 and Ramos cells (Homo sapiens, UniProt Q9P0K7) (Q9P0K7 whole entry, the tested form may be a part): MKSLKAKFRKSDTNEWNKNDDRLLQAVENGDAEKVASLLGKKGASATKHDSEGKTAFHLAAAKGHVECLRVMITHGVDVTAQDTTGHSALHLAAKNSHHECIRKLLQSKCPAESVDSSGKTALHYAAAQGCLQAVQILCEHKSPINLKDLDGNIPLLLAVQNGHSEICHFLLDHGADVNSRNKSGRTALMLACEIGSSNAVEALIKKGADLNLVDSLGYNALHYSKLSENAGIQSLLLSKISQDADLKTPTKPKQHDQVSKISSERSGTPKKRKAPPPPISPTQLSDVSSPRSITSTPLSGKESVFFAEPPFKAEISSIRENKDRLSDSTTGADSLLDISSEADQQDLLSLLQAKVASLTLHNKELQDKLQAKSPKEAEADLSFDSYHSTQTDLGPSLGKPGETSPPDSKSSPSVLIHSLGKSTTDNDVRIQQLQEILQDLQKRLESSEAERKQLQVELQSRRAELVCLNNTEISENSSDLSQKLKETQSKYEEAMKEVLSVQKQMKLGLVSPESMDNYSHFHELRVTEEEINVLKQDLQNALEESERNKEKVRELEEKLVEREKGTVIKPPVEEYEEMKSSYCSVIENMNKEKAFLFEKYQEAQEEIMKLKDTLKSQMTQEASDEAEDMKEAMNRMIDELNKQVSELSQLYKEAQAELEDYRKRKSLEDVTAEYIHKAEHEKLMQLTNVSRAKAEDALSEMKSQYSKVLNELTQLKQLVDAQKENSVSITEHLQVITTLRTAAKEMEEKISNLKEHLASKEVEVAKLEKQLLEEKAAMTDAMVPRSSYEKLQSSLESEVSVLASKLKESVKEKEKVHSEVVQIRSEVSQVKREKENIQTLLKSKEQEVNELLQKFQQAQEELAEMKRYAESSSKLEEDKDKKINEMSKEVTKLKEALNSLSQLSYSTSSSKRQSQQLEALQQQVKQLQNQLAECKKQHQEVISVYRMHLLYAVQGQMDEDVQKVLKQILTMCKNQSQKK
T2 sequence (Q9NYL2 whole entry): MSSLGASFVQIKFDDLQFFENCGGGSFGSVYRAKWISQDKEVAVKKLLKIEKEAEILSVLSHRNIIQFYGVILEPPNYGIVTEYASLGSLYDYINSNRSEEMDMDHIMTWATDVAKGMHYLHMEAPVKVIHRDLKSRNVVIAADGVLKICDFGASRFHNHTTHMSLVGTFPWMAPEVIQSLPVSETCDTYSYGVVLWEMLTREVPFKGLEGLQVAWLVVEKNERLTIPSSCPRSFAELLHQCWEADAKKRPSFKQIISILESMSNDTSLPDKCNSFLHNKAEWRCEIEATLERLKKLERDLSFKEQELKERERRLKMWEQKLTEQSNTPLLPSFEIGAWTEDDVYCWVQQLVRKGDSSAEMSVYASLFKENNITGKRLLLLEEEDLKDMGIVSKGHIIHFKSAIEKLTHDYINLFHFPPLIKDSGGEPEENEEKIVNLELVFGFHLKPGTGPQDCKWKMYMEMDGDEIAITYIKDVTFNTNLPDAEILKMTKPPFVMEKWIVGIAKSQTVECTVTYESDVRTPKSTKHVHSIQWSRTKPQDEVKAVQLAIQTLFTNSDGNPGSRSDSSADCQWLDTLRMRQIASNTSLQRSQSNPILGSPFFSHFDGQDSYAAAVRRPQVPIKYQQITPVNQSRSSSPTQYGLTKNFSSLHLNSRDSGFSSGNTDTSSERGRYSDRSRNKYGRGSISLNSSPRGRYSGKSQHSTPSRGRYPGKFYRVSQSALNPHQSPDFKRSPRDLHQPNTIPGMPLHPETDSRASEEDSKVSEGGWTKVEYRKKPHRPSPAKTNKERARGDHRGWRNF
Chain of CDKN3 C39 (Q16667) (Q16667 whole entry, the tested form may be a part): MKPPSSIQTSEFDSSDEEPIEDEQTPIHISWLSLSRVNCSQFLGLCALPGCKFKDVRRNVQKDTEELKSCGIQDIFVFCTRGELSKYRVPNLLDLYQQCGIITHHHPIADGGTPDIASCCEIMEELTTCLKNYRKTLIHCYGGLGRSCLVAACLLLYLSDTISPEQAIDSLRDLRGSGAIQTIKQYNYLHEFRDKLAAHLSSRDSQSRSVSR
T1 sequence (O75874 whole entry): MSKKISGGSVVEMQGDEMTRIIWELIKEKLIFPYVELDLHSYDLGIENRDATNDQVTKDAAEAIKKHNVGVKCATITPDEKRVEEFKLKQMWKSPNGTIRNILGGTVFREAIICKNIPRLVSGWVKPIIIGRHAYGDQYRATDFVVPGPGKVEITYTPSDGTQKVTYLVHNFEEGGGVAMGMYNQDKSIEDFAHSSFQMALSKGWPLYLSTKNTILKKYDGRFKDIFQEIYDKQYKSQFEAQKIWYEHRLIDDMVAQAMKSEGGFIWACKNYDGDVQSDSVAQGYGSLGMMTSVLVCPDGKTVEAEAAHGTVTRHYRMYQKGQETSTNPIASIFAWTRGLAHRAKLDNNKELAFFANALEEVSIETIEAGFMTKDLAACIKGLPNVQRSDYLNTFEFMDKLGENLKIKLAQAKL

Turning to `COc1ccc(C2CC(c3cccs3)=NN2C(=O)CCl)cc1` (stereo not drawn) [compound 4], the “isoTOP-ABPP reactivity profile (ratio) 4_100 μM_in-situ_231” value at NIT1 C165 (Q86X76) is given as 0.9; at CLTC C870 (Q00610), 2.1; on PGPEPI C149 (Q9NXJ5) it was 20.0; at CDKN3 C39 (Q16667), 0.6.
On to `O=C(CCl)N1CCN(S(=O)(=O)c2ccccc2F)CC1` [compound 10], for which, in assay [1], the “isoTOP-ABPP ratio, cysteine Q13867_C73” value is given as 4.2. Besides, the “isoTOP-ABPP ratio, cysteine Q8IV53_C174” value in [2] came to 5.0. Also, the “isoTOP-ABPP ratio, cysteine Q5T1V6_C414” value in assay [3] is recorded as 11.3.
For the compound `O=C(CCl)N1CCN(CC(=O)N2CCOCC2)CC1` [compound 29], the “reactivity profile of liganded cysteine Q96IV0_C309 with fragment electrophile (isoTOP-ABPP ratio)” value in [4] came out at 3.0.
In the case of `CC(C)CCOCCNC(=O)CCl` [compound 27], the “reactivity profile of liganded cysteine Q8WUM4_C90 with fragment electrophile (isoTOP-ABPP ratio)” value in assay [5] is given as 0.6.
On to `O=C(CCl)N1CCC(C(O)(c2ccccc2)c2ccccc2)CC1` [compound 20], for which, at IDH1, the “catalytic activity of WT-IDH1 (NADP+ to NADPH)” value is given as “blocked in a concentration-dependent manner”.
`COc1ccc2c(c1)CCCN2C(=O)CCl` [compound 2]: the “isoTOP-ABPP reactivity profile (ratio) 2_200 μM_in-situ_231” value at MKI67 C903 (P46013) and on WAPAL C160 (Q7Z5K2) was 20.0 in each case.
As for `Cn1cc(S(=O)(=O)N2CCOCC2)cc1C(=O)NC(=O)CCl` [compound 11], the “isoTOP-ABPP ratio, cysteine Q9P0K7_C973” value in assay [6] is given as 0.8.
Turning to `O=C(CCl)NCCc1c[nH]c2ccccc12` [compound 13], the “isoTOP-ABPP ratio, cysteine P53992_C78” value in assay [7] was 0.7. For the same compound, the “isoTOP-ABPP ratio, cysteine Q9UHQ1_C99” value in [8] came out at 20.0.
Turning to `O=C(CCl)Nc1cc(C(F)(F)F)cc(C(F)(F)F)c1` [compound 3], the “blockade of probe 59 labeling of MLTK (in words)” value on MLTK (ZAK) C22 is “inactive”.
With `C=CC(=O)N(c1ccccc1)c1ccc(Br)cc1` [compound 5], the “plateau of inhibition of TIGAR substrate turnover” value on TIGAR was 70%.
For the compound `C=CC(=O)N(Cc1cccnc1)c1cc(C(F)(F)F)cc(C(F)(F)F)c1` [compound 31], the “isoTOP-ABPP ratio, Q86UV5_C39” value in assay [9] was determined as 1.3.

The values are drawn from patent publication US10670605B2, “Cysteine reactive probes and uses thereof” (The Scripps Research Institute, priority 2015, dated 2020).
